Some test systems named below: ACHN renal; SR leukemia; CCRF-CEM leukemia; DLD-1 colon; SNB-19 CNS; OVCAR-4 ovarian; K-562 leukemia; SF-268 CNS; SNB-78 CNS; MDA-MB-231 breast.
Test in all cases: NCI tumour cell line growth inhibition, 48 h

Where “and” joins values, the source holds several entries; their conditions need not be identical. Equal values may be shown once.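 Method: 48-hour compound exposure of cells in 96-well plates, five concentrations, linear interpolation of endpoints. GI50: concentration for 50% inhibition of growth. At the TGI there is no net growth.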

Regarding `Cc1c(/C=N/N(C)C)oc2c1cc(O)c1ncccc12`, the TGI in the assay with ACHN renal is above 100 µM; with SR leukemia, 40.4 µM; in the assay on CCRF-CEM leukemia, 7.26 µM; in the assay on DLD-1 colon it was above 100 µM; with SNB-19 CNS it was above 100 µM; with OVCAR-4 ovarian it was 96.6 µM. Also, the TGI with K-562 leukemia and with SF-268 CNS was above 100 µM each time.
Regarding `O=P(O)(O)C1(P(=O)(O)O)CC1`, the TGI in the assay with SNB-78 CNS, in the assay with ACHN renal, in the assay on CCRF-CEM leukemia, in the assay on SNB-19 CNS, in the assay on OVCAR-4 ovarian and in the assay with K-562 leukemia was above 100 µM throughout. This compound also displayed a TGI in the assay with SF-268 CNS above 100 µM.
In the case of `Brc1ccc2ns[s+]c2c1`, the TGI was above 31.6 µM in the assay on SNB-78 CNS; above 100 µM in the assay with ACHN renal; above 100 µM with SR leukemia; above 100 µM in the assay with CCRF-CEM leukemia; above 100 µM in the assay with SNB-19 CNS; above 100 µM in the assay on OVCAR-4 ovarian. Also, the TGI in the assay on K-562 leukemia and with SF-268 CNS was above 100 µM in each case.
As to `COc1cccc(/C=C2\COc3ccc(-c4ccccc4)cc3C2=O)c1`, the GI50 was 2.13 µM in the assay on ACHN renal; 1.98 µM in the assay with SR leukemia; 2.42 µM in the assay on CCRF-CEM leukemia; 2.94 µM in the assay with MDA-MB-231 breast; 2.7 µM with SNB-19 CNS; 2.79 µM in the assay with OVCAR-4 ovarian. Moreover, the GI50 in the assay on K-562 leukemia was 3.32 µM; in the assay with SF-268 CNS, 3.52 µM. The TGI in the assay on ACHN renal was 5.59 µM; in the assay with SR leukemia, above 100 µM; with CCRF-CEM leukemia, 28.1 µM; in the assay on MDA-MB-231 breast it was 7.61 µM; in the assay with SNB-19 CNS, 7.21 µM; in the assay on OVCAR-4 ovarian, 7.63 µM. In addition, the TGI is above 100 µM with K-562 leukemia and 11.6 µM in the assay on SF-268 CNS.
For the compound `O=C(CN1C(=O)S/C(=C\C(Cl)=C\c2ccccc2)C1=O)NC1C=CS(=O)(=O)C1` (centres undefined), the GI50 in the assay with ACHN renal was 0.931 µM; in the assay on SR leukemia, 0.29 µM; with CCRF-CEM leukemia, 0.327 µM; with MDA-MB-231 breast, 1.44 µM; in the assay on SNB-19 CNS, 2.76 µM; with OVCAR-4 ovarian, 2.27 µM. For the same compound, the GI50 with K-562 leukemia is 0.4 µM; in the assay with SF-268 CNS, 2.44 µM. Moreover, the TGI in the assay with ACHN renal was 8.65 µM; with SR leukemia, above 100 µM; in the assay on CCRF-CEM leukemia it was above 100 µM; in the assay on MDA-MB-231 breast, 4.15 µM; in the assay with SNB-19 CNS, 11.5 µM; in the assay with OVCAR-4 ovarian, 17.4 µM. The TGI in the assay with K-562 leukemia is above 100 µM; in the assay with SF-268 CNS it was 8.55 µM.
With `CCSc1c2ccccc2c(-c2nc(F)nc(F)n2)n1CCc1ccccc1`, the TGI in the assay with SNB-78 CNS, in the assay on ACHN renal, in the assay with SR leukemia, in the assay with CCRF-CEM leukemia, in the assay on SNB-19 CNS and in the assay with OVCAR-4 ovarian was above 100 µM each time. Moreover, the TGI with K-562 leukemia and in the assay on SF-268 CNS was above 100 µM in each case.
Regarding `Cc1cc([N+](=O)[O-])c2ccccc2[n+]1[O-]`, the GI50 in the assay on ACHN renal was 0.0758 µM and 0.0614 µM; in the assay on SR leukemia it was 0.0279 µM and 0.0264 µM; in the assay with CCRF-CEM leukemia, 2.24 µM and 0.65 µM; in the assay with MDA-MB-231 breast, 0.218 µM and 0.202 µM; with SNB-19 CNS it was 0.448 µM and 0.848 µM; with OVCAR-4 ovarian, 2.72 µM and 2.61 µM. For the same compound, the GI50 is 0.156 µM and 0.0991 µM in the assay on K-562 leukemia; 0.396 µM and 0.405 µM with SF-268 CNS. Further, the TGI with ACHN renal is 0.394 µM and 0.721 µM; in the assay on CCRF-CEM leukemia it was > 47.8 µM and 7.18 µM; with MDA-MB-231 breast, 0.755 µM and 0.72 µM; in the assay on SNB-19 CNS, 4.06 µM and 8.29 µM; in the assay on OVCAR-4 ovarian, 10.1 µM and 9.13 µM; in the assay with K-562 leukemia it was 4.28 µM and 3.04 µM. The TGI with SF-268 CNS was 5.84 µM and 5.82 µM.
With `CCn1c(-c2nonc2N)nc2cncc(C(=O)N3CC[C@H](N)C3)c21`, the GI50 in the assay with ACHN renal was above 25 µM; in the assay on SR leukemia, 2.01 µM; in the assay with CCRF-CEM leukemia, 15.2 µM; in the assay on MDA-MB-231 breast it was above 25 µM; in the assay on SNB-19 CNS, above 25 µM; with OVCAR-4 ovarian it was above 25 µM. Further, the results for the GI50 in the assay on K-562 leukemia and in the assay on SF-268 CNS were above 25 µM and above 19.5 µM, respectively. For the same compound, the TGI in the assay with ACHN renal, in the assay on SR leukemia, with CCRF-CEM leukemia, in the assay on MDA-MB-231 breast, in the assay with SNB-19 CNS and in the assay with OVCAR-4 ovarian was above 25 µM throughout. In addition, the TGI in the assay on K-562 leukemia and in the assay with SF-268 CNS was above 25 µM throughout.
Take `CCN(CC)Cc1cc2[nH]c3c4ccc(Cl)cc4ncc3c2cc1OC`: the GI50 is 5.68 µM and 1.98 µM in the assay with ACHN renal; 2.36 µM in the assay on SR leukemia; 2.52 µM and 1.8 µM in the assay with CCRF-CEM leukemia; 1.83 µM and 1.8 µM in the assay with MDA-MB-231 breast; 2.63 µM and 3.51 µM with SNB-19 CNS; 1.9 µM and 1.54 µM in the assay with OVCAR-4 ovarian. Besides, the GI50 with K-562 leukemia was 3.39 µM and 1.89 µM; with SF-268 CNS it was 3.33 µM and 2.9 µM. For the same compound, the TGI is 16.3 µM and 4.98 µM in the assay on ACHN renal; > 19.7 µM and 4.57 µM in the assay on CCRF-CEM leukemia; 7.16 µM and 4.51 µM with MDA-MB-231 breast; 7.51 µM and 11.9 µM in the assay on SNB-19 CNS; 4.33 µM and 3.4 µM with OVCAR-4 ovarian; > 20.5 µM and 4.28 µM in the assay with K-562 leukemia. The TGI in the assay with SF-268 CNS is 10 µM and 9.2 µM.
As for `CCOC(=O)C1(C)CCCCC(=O)N1` (centres undefined), the TGI in the assay on SNB-78 CNS, in the assay with ACHN renal, with DLD-1 colon, with SNB-19 CNS, in the assay on OVCAR-4 ovarian and in the assay with K-562 leukemia was above 100 µM in each case. This compound showed a TGI in the assay on SF-268 CNS above 100 µM.
On to `COC(=O)C=Cc1ccc2nncnc2c1` (mixture of isomers), for which the TGI in the assay on ACHN renal, in the assay on SR leukemia, in the assay on CCRF-CEM leukemia, in the assay with MDA-MB-231 breast, in the assay on SNB-19 CNS and with OVCAR-4 ovarian was above 100 µM in each case. For the same compound, the TGI in the assay on K-562 leukemia and with SF-268 CNS was above 100 µM in each case.
`Cc1cc(N2CCN(C)CC2)n2nc(-c3ccc(Cl)cc3)nc2n1`: the TGI with ACHN renal, in the assay on SR leukemia, in the assay with CCRF-CEM leukemia, in the assay with MDA-MB-231 breast, in the assay on SNB-19 CNS and with OVCAR-4 ovarian was above 100 µM throughout. In addition, the TGI with K-562 leukemia and in the assay with SF-268 CNS was above 100 µM in each case.
As for `COc1ccc(/C=C/C(=O)c2sc(-n3nc(-c4ccccc4)cc3-c3ccccc3)nc2C)cc1`, the GI50 with ACHN renal, with CCRF-CEM leukemia, in the assay on DLD-1 colon, in the assay on SNB-19 CNS and in the assay on SF-268 CNS was above 100 µM each time. For the same compound, the TGI with ACHN renal, in the assay on CCRF-CEM leukemia, in the assay with DLD-1 colon, in the assay with SNB-19 CNS, in the assay on OVCAR-4 ovarian and in the assay with K-562 leukemia was above 100 µM each time. In the assay with SF-268 CNS, this compound had a TGI above 100 µM.

The values above are taken from PubChem BioAssay (NCI).
